Test results taken from PMC8421423, “Cellular model system to dissect the isoform-selectivity of Akt inhibitors” (Nature Communications, 2021).
Values joined by “and” are separate entries in the source; they are usually repeats but may differ in a detail not shown here. Identical values can stand only once. Like-named read-outs stand apart in the source and are kept apart here.

Columns and labels:
Ba/F3^myr-Akt2 cells = assay: CellTiter-Glo cell viability assay; conditions: for cell viability: CTG
Method: On day 0, cells were plated into white 384-well cell culture plates (Greiner Bio-One) using a Multidrop reagent dispenser (Thermo Fisher Scientific) at cell numbers that ensure linear and optimal luminescent signal intensity (Ba/F3myr-Akt1: 600 cells/well, Ba/F3myr-Akt2: 800 cells/well, Ba/F3myr-Akt3: 800 cells/well). […] Cell viability was analyzed on day 4 using the CellTiter-Glo Assay (Promega) as per the manufacturer’s instructions. […] All experimental points were measured in duplicates for each plate and were replicated in at least three plates.

Akt3 [1] = biological target: T1, Akt3 (Homo sapiens, UniProt Q9Y243); assay: STK HTRF KinEASE activity-based assay (IC50)
T1 sequence (Q9Y243 whole entry): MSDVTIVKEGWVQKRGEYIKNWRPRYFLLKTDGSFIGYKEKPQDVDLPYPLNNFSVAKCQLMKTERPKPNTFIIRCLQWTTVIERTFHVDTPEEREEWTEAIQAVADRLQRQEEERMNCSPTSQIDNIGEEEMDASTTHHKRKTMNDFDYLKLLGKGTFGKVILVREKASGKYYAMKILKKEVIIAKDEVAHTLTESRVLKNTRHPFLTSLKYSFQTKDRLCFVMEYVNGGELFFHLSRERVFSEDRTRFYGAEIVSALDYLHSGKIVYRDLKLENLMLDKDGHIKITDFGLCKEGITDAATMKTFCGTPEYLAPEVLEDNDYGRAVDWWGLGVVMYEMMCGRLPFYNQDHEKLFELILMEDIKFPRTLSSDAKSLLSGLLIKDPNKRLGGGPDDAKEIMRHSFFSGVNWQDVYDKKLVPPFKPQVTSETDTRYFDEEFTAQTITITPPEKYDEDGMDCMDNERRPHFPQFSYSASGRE
Method: (§1) The biochemical half maximal inhibitory concentrations (IC50) were determined with the STK HTRF KinEASE assay (Cisbio) according to the manufactor’s instructions. Briefly: 5 µL Kinase solution and 2.5 µL inhibitor solution (8% DMSO in HTRF buffer) were incubated for 1 h before the reaction was started by addition of 2.5 µL starting solution containing ATP and substrate peptide. […] After reaction completion (Akt1: 60 min, Akt2: 20 min, Akt3: 15 min), 10 µL of stop solution were added. […] The quotient of both intensities were recorded at eight different inhibitor concentrations and data fit to a Hill 4-parameter equation with Quattro software suite (Quattro Research GmbH, Martinsried, Germany). Each reaction was performed in duplicates and at least three independent determinations of each IC50 were made.

Akt3 [2] = biological target: T1, Akt3; assay: Cellular thermal shift assay (CETSA) in PANC1 cells; format: cell-based; set-up: purchased ProQinase #1578-0000-1
Method: Cells were seeded into 100 mm tissue culture plates (Sarstedt) (PANC1: 10^6 cells). After 24 h incubation, cells were treated with 1 µM of inhibitors or DMSO and were incubated for 4.5 h. Cells were washed twice with ice-cold PBS and then suspended in 1 mL PBS. Cells were collected and separated into equal volumes (100 µL). The aliquots were treated individually with different temperatures for 3 min, followed by a 3 min incubation at room temperature. Cell lysis was initiated by adding 100 µL RIPA buffer and 2 freeze-thaw cycles in liquid nitrogen. The lysates were centrifuged at 21,130×g for 20 min at room temperature. The supernatants were transferred into fresh, pre-cooled microcentrifuge tubes, and analyzed by western blot analysis as described above.

Akt2 [3] = biological target: T2, Akt2 (Homo sapiens, UniProt P31751); assay: STK HTRF KinEASE activity-based assay (IC50)
T2 sequence (P31751 whole entry): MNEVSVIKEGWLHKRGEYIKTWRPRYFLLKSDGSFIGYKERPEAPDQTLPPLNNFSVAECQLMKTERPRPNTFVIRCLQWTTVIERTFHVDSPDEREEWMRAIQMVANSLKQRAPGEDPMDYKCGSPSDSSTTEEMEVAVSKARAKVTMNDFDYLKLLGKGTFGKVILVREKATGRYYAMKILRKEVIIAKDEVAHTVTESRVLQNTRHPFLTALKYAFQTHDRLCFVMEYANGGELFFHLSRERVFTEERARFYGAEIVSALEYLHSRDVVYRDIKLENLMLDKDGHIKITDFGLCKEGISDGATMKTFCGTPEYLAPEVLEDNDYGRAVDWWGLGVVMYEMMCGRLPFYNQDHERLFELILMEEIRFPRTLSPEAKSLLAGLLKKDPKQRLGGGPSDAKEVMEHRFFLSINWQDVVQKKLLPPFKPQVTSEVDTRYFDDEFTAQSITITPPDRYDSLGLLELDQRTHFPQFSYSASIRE
Method: as §1

Akt2 [4] = biological target: T2, Akt2; assay: Cellular thermal shift assay (CETSA) in PANC1 cells; format: cell-based; set-up: purchased Thermo Fisher Scientific #PV3184
[5] = CETSA PANC1, 1 µM, temperature 39.9
[6] = CETSA PANC1, 1 µM, temperature 43.5
[7] = CETSA PANC1, 1 µM, temperature 48.4
[8] = CETSA PANC1, 1 µM, temperature 53.8
[9] = CETSA PANC1, 1 µM, temperature 58.1
[10] = CETSA PANC1, 1 µM, temperature 61.4
[11] = CETSA PANC1, 1 µM, temperature 65.6
[12] = CETSA PANC1, 1 µM, temperature 70.9
[13] = CETSA PANC1, 1 µM, temperature 76
[14] = CETSA PANC1, 1 µM, temperature 79.9
[15] = CETSA PANC1, 2.5 µM, temperature 39.9
[16] = CETSA PANC1, 2.5 µM, temperature 43.5
[17] = CETSA PANC1, 2.5 µM, temperature 48.4
[18] = CETSA PANC1, 2.5 µM, temperature 53.8
[19] = CETSA PANC1, 2.5 µM, temperature 58.1
[20] = CETSA PANC1, 2.5 µM, temperature 61.4

Q: How did the cell viability (Ba/F3^myr-Akt2 cells; myr-Akt2, 0.1 nM, single replicates, 0.0001 µM) turn out when `C=CC(=O)Nc1ccc2[nH]c(=O)n(C3CCN(Cc4ccc(-c5ncc(Cc6ccc(N)nc6)cc5-c5ccccc5)cc4)CC3)c2c1` [compound 20] was run?
A: The cell viability was 92.3 % of control and 98.1 % of control.

Q: What about the cell viability (Ba/F3^myr-Akt2 cells; myr-Akt2, 5000 nM, single replicates, 5 µM) of the same compound?
A: Its cell viability is 26.9 % of control and 44.2 % of control.

Q: What about the EC50 (Ba/F3^myr-Akt2 cells; Mus musculus, read-out: CTG BaF3myr-Akt2, Mean, mean of replicates) of the same compound?
A: Its EC50 is 4.09 µM.

Q: What about the EC50 (Ba/F3^myr-Akt2 cells; Mus musculus, read-out: CTG BaF3myr-Akt2, individual determinations, single replicates) of the same compound?
A: The EC50 was 2.95 µM.

Q: What about the viability at 0.0001 µM (Ba/F3^myr-Akt2 cells; Mus musculus, read-out: cell viability, CTG, myr-Akt2, 0.1 nM, single replicates) of the same compound?
A: Its viability at 0.0001 µM is 105%.

Q: And the viability at 5 µM (Ba/F3^myr-Akt2 cells; Mus musculus, read-out: cell viability, CTG, myr-Akt2, 5000 nM, single replicates)?
A: The viability at 5 µM was 25.6%.

Q: And the EC50 (Ba/F3^myr-Akt2 cells; read-out: CTG BaF3myr-Akt2, individual determinations, single replicates)?
A: Its EC50 is 4.7 µM and 4.62 µM.

Q: And the IC50 (Akt3 [1]; HTRF IC50 Akt3, individual determinations, single replicates)?
A: The IC50 was 144 nM and 176 nM and 240 nM and 188 nM.

Q: And the IC50 (Akt3 [1]; IC50 Akt3, HTRF, ATP at KM, 1 h preincubation)?
A: Its IC50 is 187 ± 40 nM.

Q: What about the tAkt3 % (Akt3 [2]; [5]) of the same compound?
A: The tAkt3 % was 100.00%.

Q: What about the tAkt3 % (Akt3 [2]; [6]) of the same compound?
A: Its tAkt3 % is 71.95%.

Q: And the tAkt3 % (Akt3 [2]; [7])?
A: Its tAkt3 % is 46.73%.

Q: What about the tAkt3 % (Akt3 [2]; [8]) of the same compound?
A: The tAkt3 % was 49.56%.

Q: What about the tAkt3 % (Akt3 [2]; [9]) of the same compound?
A: The tAkt3 % was 48.14%.

Q: What about the tAkt3 % (Akt3 [2]; [10]) of the same compound?
A: The tAkt3 % was 35.11%.

Q: What about the tAkt3 % (Akt3 [2]; [11]) of the same compound?
A: The tAkt3 % was 25.19%.

Q: What about the tAkt3 % (Akt3 [2]; [12]) of the same compound?
A: The tAkt3 % was 2.44%.

Q: What about the tAkt3 % (Akt3 [2]; [13]) of the same compound?
A: The tAkt3 % was 2.83%.

Q: And the tAkt3 % (Akt3 [2]; [14])?
A: The tAkt3 % was 0.00%.

Q: What about the tAkt3 % (Akt3 [2]; [15]) of the same compound?
A: Its tAkt3 % is 100.00%.

Q: What about the tAkt3 % (Akt3 [2]; [16]) of the same compound?
A: The tAkt3 % was 103.86%.

Q: What about the tAkt3 % (Akt3 [2]; [17]) of the same compound?
A: Its tAkt3 % is 83.57%.

Q: What about the tAkt3 % (Akt3 [2]; [18]) of the same compound?
A: Its tAkt3 % is 72.46%.

Q: And the tAkt3 % (Akt3 [2]; [19])?
A: The tAkt3 % was 73.91%.

Q: What about the tAkt3 % (Akt3 [2]; [20]) of the same compound?
A: The tAkt3 % was 50.24%.

Q: And the tAkt3 % (Akt3 [2]; CETSA PANC1, 2.5 µM, temperature 65.6)?
A: Its tAkt3 % is 22.85%.

Q: What about the tAkt3 % (Akt3 [2]; CETSA PANC1, 2.5 µM, temperature 70.9) of the same compound?
A: The tAkt3 % was 8.02%.

Q: And the tAkt3 % (Akt3 [2]; CETSA PANC1, 2.5 µM, temperature 76)?
A: Its tAkt3 % is 2.05%.

Q: What about the tAkt3 % (Akt3 [2]; CETSA PANC1, 2.5 µM, temperature 79.9) of the same compound?
A: Its tAkt3 % is 0.00%.

Q: And the “thermal stabilization of Akt3 (CETSA, in words)” value (Akt3 [2]; PANC1, 1 µM)?
A: Its value is “slight stabilization of Akt3”.

Q: And the “thermal stabilization of Akt3 (CETSA, in words)” value (Akt3 [2]; PANC1, 2.5 µM)?
A: Its value is “significant stabilization of Akt2 and Akt3”.

Q: And the IC50 (Akt2 [3]; HTRF IC50 Akt2, Mean, mean of replicates)?
A: The IC50 was 175 nM.

Q: What about the IC50 (Akt2 [3]; HTRF IC50 Akt2, individual determinations, single replicates) of the same compound?
A: Its IC50 is 177 nM and 317 nM and 174 nM.

Q: And the IC50 (Akt2 [3]; IC50 Akt2, HTRF, ATP at KM, 1 h preincubation)?
A: Its IC50 is 175 ± 2 nM.

Q: What about the tAkt2 % (Akt2 [4]; [5]) of the same compound?
A: Its tAkt2 % is 100.00%.

Q: And the tAkt2 % (Akt2 [4]; [6])?
A: The tAkt2 % was 81.90%.

Q: And the tAkt2 % (Akt2 [4]; [7])?
A: The tAkt2 % was 58.55%.

Q: And the tAkt2 % (Akt2 [4]; [8])?
A: The tAkt2 % was 58.55%.

Q: And the tAkt2 % (Akt2 [4]; [9])?
A: The tAkt2 % was 42.44%.

Q: And the tAkt2 % (Akt2 [4]; [10])?
A: Its tAkt2 % is 52.13%.

Q: What about the tAkt2 % (Akt2 [4]; [11]) of the same compound?
A: The tAkt2 % was 35.55%.

Q: And the tAkt2 % (Akt2 [4]; [12])?
A: The tAkt2 % was 6.07%.

Q: And the tAkt2 % (Akt2 [4]; [13])?
A: Its tAkt2 % is 11.50%.

Q: What about the tAkt2 % (Akt2 [4]; [14]) of the same compound?
A: The tAkt2 % was 0.00%.

Q: And the tAkt2 % (Akt2 [4]; [15])?
A: The tAkt2 % was 100.00%.

Q: What about the tAkt2 % (Akt2 [4]; [16]) of the same compound?
A: The tAkt2 % was 97.05%.

Q: What about the tAkt2 % (Akt2 [4]; [17]) of the same compound?
A: Its tAkt2 % is 85.02%.

Q: And the tAkt2 % (Akt2 [4]; [18])?
A: The tAkt2 % was 75.94%.

Q: What about the tAkt2 % (Akt2 [4]; [19]) of the same compound?
A: The tAkt2 % was 76.89%.

Q: What about the tAkt2 % (Akt2 [4]; [20]) of the same compound?
A: Its tAkt2 % is 28.89%.
